{
  "source": "patent US20240139347A1",
  "about": "“COMPLEX, VASCULAR CONTRAST AGENT, X-RAY CONTRAST AGENT, METHOD FOR PRODUCING COMPLEX, AND IMAGING METHOD FOR CAPTURING STRUCTURAL CHANGE IN VESSEL” (TOHOKU UNIVERSITY, priority 2021, published 2024)",
  "test": "in vivo",
  "conditions": "BALB/c, mouse, iv",
  "description": "The complex disclosed in the present application is preferably retained in the blood until completion of X-ray CT imaging after administration and is preferably excreted by the kidneys by the time of the next X-ray CT imaging. […] As a matter of course, the half-life in blood may be shorter or longer than the above half-life in blood in the case of imaging a temporary structure instead of imaging structural change over time or using a typical X-ray CT imaging device. The half-life in blood can be adjusted by changing the type of protein or the size of the complex. The “half-life in blood” means the time it takes for the X-ray CT value of the complex to decrease by half from the maximum value after administration in vivo. However, the shortest time at which X-ray CT imaging can be started after administration of a contrast agent is about 5 minutes, and thus the measurement value at the time when X-ray CT imaging is started 5 minutes after administration of the contrast agent is defined as the “maximum value after administration in vivo” in the present specification.\nImaging was performed using a micro X-ray CT device (SkyScan1176, Bruker) under conditions of a tube voltage of 50 kV, a tube current of 500 μA, and 35 μm/voxel, 18 μm/voxel, or 9 μm/voxel. The contrast agents synthesized in Example 1 and Comparative Examples 1 and 2 were imaged in vitro. In vivo, 200 μL of each contrast agent was injected into an anesthetized mouse from the tail vein, and CT imaging was performed once or twice. Slice images were acquired using CTAn (Bruker), and volume rendered images were acquired using CTVOX. CT values were calculated by defining the value of Hounsfield Units (HU) as −1000 for air and 0 for water.\nThe image before the administration of the contrast agent was taken as 0 min (before injection).\nFIGS. 16 and 17 show CT images of mouse hearts before and after intravenous administrations of the contrast agents. […] In addition, in FIGS. 16 and 17, the dotted line circles indicate the contour of the hearts, and the tips of the arrows (white and black) indicate the positions of the septa of the hearts.\nFIG. 18 is a graph showing results of measuring changes in CT values of ventricles over time.",
  "data": [
    {"compound": "C[C@H](O)C(=O)Nc1c(I)c(C(=O)NC(CO)CO)c(I)c(C(=O)NC(CO)CO)c1I", "note": "[iopamidol, Iopamidol]", "values": [
      {"measurement": "CT value of ventricles", "value": 72, "unit": "HU"},
      {"measurement": "half-life", "value": "< 60", "unit": "min"},
      {"measurement": "CT value of ventricles", "setting": "5 min", "value": 291, "unit": "HU"},
      {"measurement": "CT value of ventricles", "setting": "60 min", "value": 130, "unit": "HU"},
      {"measurement": "CT value of ventricles", "setting": "180 min", "value": 75, "unit": "HU"},
      {"measurement": "CT value of ventricles", "setting": "360 min", "value": 87, "unit": "HU"},
      {"measurement": "CT value of ventricles", "setting": "24 h", "value": 72, "unit": "HU"}
    ]}
  ]
}
